In patent publication US8283521B2, “Transcription factor gene induced by water deficit conditions and abscisic acid from Helianthus annuus, promoter and transgenic plants” (Bioceres S.A., priority 2003, dated 2012):

Key:
[1] = tested on: Hahb-4; experiment: Time dependence of the response of Hahb-4 to ABA by Northern analysis; type: in vivo, Helianthus annuus; conditions: 100 μM ABA
Experimental: Total RNA (20 μg) was isolated from seedlings that were either untreated, or treated with 100 μM ABA for different times as indicated in each lane. In the lower panel, the same filter was hybridized with an rRNA probe as a control for RNA loading and transfer.
The high level of induction observed under water stress conditions allowed us to analyze the time-dependent increase in transcript levels by Northern experiments. […] After this time, no further increments in Hahb-4 transcript levels were observed. Re-hydration of the seedlings lowered Hahb-4 transcript levels more slowly, with only about a 50% decrease after 2 h (FIG. 3, lanes 4 and 5). The effect of ABA treatment was also time dependent. […] The high Hahb-4 transcript levels of the invention are reverted after the re-hydration of the sunflower plants, thus indicating again that said gene participates in the response to the water stress.
Total RNA (20 μg) was denatured with formamide and formaldehyde, separated in a 1.5% (w/v) agarose/6% formaldehyde gel, and blotted onto nylon membranes (Hybond N; Amersham-Pharmacia, Buckinghamshire, UK) essentially as described by Sambrook, Fritsch & Maniatis (1989).
Hybridization was performed overnight at 65° C. in 6×SSC (1×SSC is 0.15 M NaCl, 0.015 M Na3-citrate, pH 7.0), 0.1% (w/v) polyvinylpirrolidone, 0.1% (w/v) bovine serum albumin, 0.1% (w/v) Ficoll, 0.5% (w/v) sodium dodecyl sulphate (SDS). […] The filters were autoradiographed using Bio-Max films and transcreen (Eastman Kodak, Rochester, N.Y., USA) overnight. To check the amount of total RNA loaded in each lane, filters were then re-probed with a 25S rRNA from Vicia faba under similar conditions as those described above, except that hybridization was performed at 62° C.

[2] = tested on: 5′-CAAT(A/T)ATTG-3′ DNA sequence; experiment: Electrophoretic mobility shift assay with nuclear extracts of treated seedlings; type: binding, Helianthus annuus; conditions: nuclear extracts from ABA-treated 4-day-old seedlings
Experimental: The presence of functional DNA binding proteins in sunflower nuclei was analyzed by electrophoretic mobility shift assays using a synthetic double-stranded oligonucleotide comprising the sequence 5′-CAAT(A/T)ATTG-3′ (SEQ ID NO:23) bound in vitro by Hahb-4 expressed in bacteria. […] On the contrary, only the slower-migrating complex increased when plants were subjected to water stress. Formation of both complexes was almost completely abolished by an excess of the same unlabelled DNA, but not by an equivalent amount of a similar DNA containing the sequence 5′-CACT(A/T)AGTG-3′ (SEQ ID NO:31) (changed positions underlined) not bound by Hahb-4 (FIG. 6).
Sunflower nuclei and nuclear extracts were prepared from control, water-stressed, or ABA-treated seedlings (4-days-old) according to the technique described in Maliga et al. (Methods in Plant Molecular Biology. A Laboratory Course Manual, pages 233-260. Cold Spring Harbor Laboratory Press, Cold Spring Harbor, N.Y., USA, 1995, herein incorporated by reference). Protein patterns were analyzed by SDS-polyacryla-mide gel electrophoresis (PAGE) and total protein concentration was measured as described Sedmak J. et. al., Analytical Biochemistry 79: 544-552, 1977. […]

[3] = tested on: Hahb-4; experiment: Hahb-4 expression in treated sunflower seedlings by RNAse protection; type: in vivo, Helianthus annuus
Text: We have analyzed the expression of Hahb-4 under different environmental conditions (i.e. water, osmotic, salt, cold, heat, and oxidative stress) by RNAse protection, which is more sensitive than the Northern technique (FIG. 2).
As many responses to water stress are mediated by ABA, we have also analyzed the effect of this hormone on the expression.
Helianthus annuus L. (sunflower cv. contiflor 15, from Zeneca, Balcarce, Argentina, or cv. Sunweed, from Rhône-Poulenc, Lyon, France) seeds were surface sterilized and grown on filter paper inside Petri dishes for a period of 4 d. Seedlings were then transferred to plastic supports containing Hoagland's medium and grown until they had six leaves (approximately 3 weeks). Water stress was imposed either by transferring 4-day-old-seedlings to Petri dishes with dry filter paper or by removing plants from the hydroponic culture.
For RNAse protection analysis, total RNA (15 μg) prepared as described (Almoguera C., et. al.; Plant molecular Biology 19: 781-792, 1992) was hybridized to a specific Hahb-4 riboprobe synthesized by in vitro transcription using T3 RNA polymerase and [^32P]CTP following the instructions of the manufacturer (Boehringer Mannheim, Mannheim, Germany). The template consisted of an insert corresponding to the coding region between +81 and +429 (FIG. 1 and SEQ ID NO 1) cloned into the SpeI/BamHI sites of pBlue-script SK^−. The BamHI site, not present in the cDNA, derives from amplification with oligonucleotide H41 as described above. Restriction digestion of this template DNA with EcoRI allows transcription of a 411-nucleotide RNA probe that contains 63 nucleotides from the vector (from the T3 promoter to the SpeI site in the polylinker, and from the BamHI to the EcoRI sites). Conditions for riboprobe preparation, hybridization, digestion with RNAse A, and subsequent electrophoretic analysis of protected RNA fragments were as previously described (Coca M: A: et. al.; Plant Molecular Biology 31: 863-876, 1996, herein incorporated as reference).

[4] = tested on: Arabidopsis thaliana; experiment: Germination in the presence of mannitol or NaCl; type: in vivo; conditions: 50, 200, 300 mM mannitol
Experimental: First, the germination process, under conditions imitating the lack of water, such as presence of mannitol, and other conditions generating salt stress, was analyzed. FIGS. 11, 12 and 13 show the germination times of plants transformed according to the invention as compared to control ones. […] This effect is more remarked at higher concentrations of the carbohydrate.
When the germination tests were carried out in the presence of different concentrations of NaCl the obtained results were similar as in the case of mannitol.
The seeds from Arabidopsis thaliana were sterilized by washing with ethanol 70% (v/v) (1 min), chlorine 5%-SDS 1% (15 min) and sterile distilled water (3 times). Then the seeds were suspended in 8 ml of agar 0.1% and sowed in 150 mm Petri plates containing MS medium, with the addition of Gamborg's vitamins. The plates were maintained at 4° C. during two days and then placed into a culture chamber with controlled light and temperature (16 hours light at 24° C. and 8 hours darkness at 21° C.). The required illumination conditions (150-200 μE/m 2) were artificially obtained by keeping the plants at a distance of 25 cm from six fluorescent tubes, intercalating white light and Grolux tubes (from Sylvania) adjacently located.

Row | Compound | Hahb-4 transcript levels after 24 h of treatment ([1]; 24 h) | time of maximum response of Hahb-4 to ABA ([1]; seedlings) | time until response of Hahb-4 to ABA is detectable ([1]; seedlings) | amount of both protein complexes binding the Hahb-4 target sequence [2] | Hahb-4 transcript levels ([3]; 10 μM ABA) | Hahb-4 expression ([3]; 100 μM ABA, 24 h, irrigated 4-day-old seedlings) | Hahb-4 expression ([3]; 0.5 M mannitol during 4 h, 4-day-old seedlings) | effect of mannitol on germination [4]
1 | CC1=CC(=O)CC(C)(C)[C@@]1(O)/C=C/C(C)=C\C(=O)O [ABA, abscisic acid] | still significantly high | 3 to 6 h | ≤ 1 h | significantly increased | smaller, but significant increase in transcript levels | induction was observed |  | 
2 | OC[C@@H](O)[C@@H](O)[C@H](O)[C@H](O)CO [Mannitol, mannitol] |  |  |  |  |  |  | induced Hahb-4 expression, although at lower levels | delays the germination
